The values that follow are results of earlier work, collected in patent US10799517B2, “Oral composition of celecoxib for treatment of pain” (Dr. Reddy's Laboratories Ltd., priority 2015, dated 2020).

The conditions of series [1]: upon oral administration.
The conditions of series [2]: between 5° C. and 40° C.; pH independent at pH<9.

Take `Cc1ccc(-c2cc(C(F)(F)F)nn2-c2ccc(S(N)(=O)=O)cc2)cc1` [Celecoxib, 4-[5-(4-methylphenyl)-3-(trifluoromethyl)-1H-pyrazol-1-yl] benzenesulfonamide]: the “time for peak plasma concentrations to be achieved” value in series [1] was “approximately 3.0 hours”. In addition, the aqueous solubility entry in series [2] is “about 5 μg/ml”.
